Reference: patent US12274684B2, “Treatment of vasculopathy with prostacyclin and mesenchymal stem cells” (United Therapeutics Corporation, priority 2013, dated 2025)

Test system: human bone marrow MSC
Experiment: VEGF-A gene expression in MSC by qRT-PCR
Assay type: cell-based
Experimental: Conditioned media was assayed for VEGF by ELISA after 24 hours of treprostinil exposure (n=4 replicates). Cells from those replicates were lysed, and RNA was extracted to determine VEGF-A gene expression by qRT-PCR. Cells from the remaining two (2) replicates were trypsinized, and assayed for cell viability by trypan blue exclusion. Cell culture supernatant was assayed for VEGF protein by ELISA (FIG. 3A, n=4). Cell lysates from those cultures were assayed for VEGF-A gene expression by qRT-PCR, and normalized to the control value (FIG. 3B, n=4). In both figures, error bars represent the standard deviation in each test group. To characterize the effect of treprostinil on MSC, cells were analyzed by qRT-PCR and microarray to identify changes in gene expression (4). Cell culture supernatant media was assayed for selected inflammatory cytokines by bead-based immunoassays (2). Secreted vesicles were isolated from cell culture supernatant, and assayed for RNA content by qRT-PCR (7). Vesicles were also assayed for size and concentration by tunable resistive pulse sensing, or TRPS (7) (refer to Example 4).

CCCCC[C@H](O)CC[C@@H]1[C@H]2Cc3cccc(OCC(=O)O)c3C[C@H]2C[C@H]1O [treprostinil]
VEGF-A gene expression vs untreated controls (100 μg/mL, 24 h): not significantly different from untreated controls | VEGF-A gene expression, fold increase (200 μg/mL, 24 h): over 5 fold | VEGF-A expression, fold over untreated controls (qRT-PCR) (250 μg/mL, 24 h (FIG. 8, upper panel)): ~3.5 fold
